Laboratory results taken from patent publication US10517842B2, “Methods of modulating miRNA levels and compositions for use in the same” (Los Angeles Biomedical Research Institute at Harbor-UCLA …, priority 2017, dated 2019).

How the values were obtained:
Assay type in all cases: cell-based, human
[1] = tested on: miR-29c; test: Quantitative RT-PCR (TaqMan miRNA assay), cellular and secreted miRNA in LSMC; details: for miR-29c level: 48 hours, LSMC; for expression of miR-29c: primary leiomyoma cells
Experimental: (§1) Total RNA was extracted from LSMC using RNAzol (GeneCopoeia, Rockville, Md.) and their quantity and quality was determined (ND-1000 Spectrophotometer, NanoDrop Technologies, Wilmington, Del.) as previously described (Chuang & Khorram, “miR-200c Regulates IL8 Expression by Targeting IKBKB: A Potential Mediator of Inflammation in Leiomyoma Pathogenesis,” PloS one (2014) 9:e95370). For medium miRNA extraction, 5 pg of synthetic miR-1 from Caenorhabditis elegans (cel-miR-1) was added as a spike-in control for purification efficiency. Subsequently, 2 μg or 10 ng (for miRNA) was reverse transcribed using random primers for CCND1, CDK2, COL1A1, COL3A1, TGF-β3, DNMT1 and EZH2 or specific primers for miR-29c and miR-200c according to the manufacturer's guidelines (Applied Biosystems, Carlsbad, Calif.). Quantitative RT-PCR was carried out using SYBR gene expression master mix or TaqMan miRNA expression assays (Applied Biosystems). Reactions were incubated for 10 min at 95° C. followed by 40 cycles for 15 seconds at 95° C. and 1 min at 60° C. The level of mRNAs and expression of cellular and secreted miRNA was determined using the Invitrogen StepOne System with 18S, RNU6B and cel-miR-1 used for normalization respectively. All reactions were run in triplicate and relative expression was analyzed with the comparative cycle threshold method (2^−ΔΔCT) according to the manufacturer (Applied Biosystems). Values were expressed as fold change compared to the control group.

[2] = tested on: 3′UTR of CDK2; test: 3′UTR luciferase reporter assay in LSMC; details: primary leiomyoma cells
[3] = tested on: miR-200c; test: Quantitative RT-PCR (TaqMan miRNA assay), cellular and secreted miRNA in LSMC; details: primary leiomyoma cells
Experimental: as §1

[4] = tested on: 3′UTR of COL3A1; test: 3′UTR luciferase reporter assay in LSMC; details: primary leiomyoma cells
Experimental: LSMC were seeded at 3.5×10^4 cells/well in 6-well plates and at sub-confluence were treated with Tranilast (200 μM) or DMSO as control for 48 hrs. Tranilast and DMSO-treated cells were then transfected with luciferase reporter plasmids (1 μg/well) containing 3′ UTR sequences for COL3A1 or CDK2 (GeneCopoeia, Inc., Rockville, Md.) using PureFection transfection reagent (System Biosciences, Inc., Palo Alto, Calif.). After 48 hrs of transfection Firefly and Renilla luciferase activities were measured using the Dual-Luciferase Reporter Assay System (Promega). Firefly luciferase activity was normalized to Renilla luciferase activity. The level of induction was reported as mean±SEM of three experiments and compared with a ratio in cells treated with DMSO independently set as 1.
FIG. 10A: The relative luciferase activity in LSMC treated with Tranilast (200 μM) or DMSO as control for 48 hrs prior to transfection with Renilla and Firefly luciferase reporter plasmids carrying a 3′UTR fragment of COL3A1, CDK2 or IL8 and incubated with Tranilast (200 μM) or DMSO containing medium after transfection for another 48 hrs. The relative luciferase activity is presented as the ratio of Firefly:Renilla as compared to DMSO which was independently set as 1. The results are presented as mean±SEM of at least three sets of independent experiments using LSMC isolated from 3 patients. FIG. 10B: Protein expression of COL3A1 and CDK2 was determined after transfection of anti-miR scrambled oligonucleotides (aNC) or anti-miR-29c oligonucleotides (a29c) in LSMC for 72 hrs with DMSO or Tranilast (200 μM) treatment for the last 48 hrs. GAPDH was used as loading control. The result is one representative of at least three sets of independent experiments using LSMC isolated from 3 patients. FIG. 10C: The bar graph presented the relative band densities as mean±SEM of at least three independent experiments. Inhibition of protein expression by Tranilast treatment was calculated relative to changes in corresponding DMSO controls in cells transfected with aNC or anti-miR-29c.

CC(=O)Oc1ccccc1C(=O)O [Aspirin]
miR-29c level ([1]; Aspirin 10 mM): not affected

O=C(CC1NCCCC1O)Cn1cnc2cc(Br)c(Cl)cc2c1=O (centres unmarked) [Halofuginone]
activity of luciferase reporter containing 3′UTR of CDK2 ([2]; Halofuginone 200 nM): inhibit | expression of miR-29c ([1]; Halofuginone 200 nM): induce | expression of miR-200c ([3]; Halofuginone 200 nM): induce | activity of luciferase reporter containing 3′UTR of COL3A1 ([4]; Halofuginone 200 nM): inhibit

Cc1ccc(=O)n(-c2ccccc2)c1 [Pirfenidone]
activity of luciferase reporter containing 3′UTR of CDK2 ([2]; Pirfenidone 0.25 mg/ml): inhibit | expression of miR-29c ([1]; Pirfenidone 0.25 mg/ml): induce | expression of miR-200c ([3]; Pirfenidone 0.25 mg/ml): induce | activity of luciferase reporter containing 3′UTR of COL3A1 ([4]; Pirfenidone 0.25 mg/ml): inhibit

CCCCc1oc2ccccc2c1C(=O)c1cc(I)c(OCCN(CC)CC)c(I)c1 [amiodarone]
miR-29c level ([1]; amiodarone 1 μM): not affected

bleomycin
miR-29c level ([1]; bleomycin 10 μg/ml): not affected
